What was measured:
[1] = tested on: dogs with acute myocardial infarction; conditions: US2004014671A1; cited from earlier work
[2] = tested on: phosphorylation of serine 23-24 on troponin I; assay: Cardiomyocyte protein immunoblotting of troponin I phosphorylation; format: cell-based, mouse; conditions: for troponin I serine 23-24 phosphorylation signal: 15 min treatment, vs placebo
Description: Isolated cardiomyocytes were treated for 15 min in different conditions (Placebo, Ghrelin, D-Lys 3 GHS-R1a, D-Lys 3 GHS-R1a+Ghrelin). Thereafter cardiomyocytes were pelleted and homogenated. Protein lysates were separated by electrophoresis and transferred onto membranes. Membranes were incubated with primary antibody: rabbit phospho-troponin I (cardiac) ([…]) antibody (Cell Signaling #4004), mouse troponin 1 (Millipore MAB1691A). Then infrared-labelled secondary antibodies (IRDye 680 and IRDye 800, 1:5000, Licor) were used. Immunoreactive bands were analyzed using the Odyssey Infrared Imaging System. Band densities were quantified with Image J, normalized to GAPDH and final data expressed as fold increase compared to Placebo group.

rat HF models = conditions: cited from earlier work
[3] = tested on: patients with advanced CHF and reduced EF; assay: Trial QTc interval (12-lead ECG, Bazett); format: in vivo, human
Description: A plethysmographic based (finger-cuff) approach was used to measure blood pressure (Nexfin®, BMEYE B.V., Amsterdam, The Netherlands). Nexfin was also used for heart rate monitoring. Heart rate and blood pressure data were measured continuously, beat-by-beat, throughout the study protocol. The data was then averaged over 15 minutes following the Innocor measurements. In addition EKG was assessed before start of and during infusion at 60 and 120 minutes and after the ad lib lunch. QT intervals were measured in the precordial lead V5 in 12-lead surface ECGs, at 50 mm/sec paper speed and 10 mm/mV amplitude. Heart rate corrected QT intervals (QTc) were manually calculated with the Bazett formula, QTc=QT/RR^1/2, using the RR interval preceding the measured QT interval. The mean QTc from 3 heart beats was recorded.
The difference in change in heart rate between the groups was quantified. Bradycardia was defined as a reduction in heart rate of >15 beats per minute, to a heart rate <40 beats per minute, an increase in PQ time by >20 ms, or AV block II-III. In individual patients, tachycardia was defined as an increase in heart rate by >10 beats per minute or heart rate >110 beats per minute. Ventricular extraystoles were quantified and ventricular tachycardia was defined as non-sustained if ≥3 beats in a row up to ≤30 seconds, and sustained if >30 seconds. Supra-ventricular arrhythmia was defined as ectopic atrial tachycardia, atrial flutter or atrial fibrillation, or AV-nodal tachycardia of >3 seconds duration. Ghrelin may […] hERG channels and as such cause a prolongation of the QTc interval on the EKG, which theoretically could predispose to arrhythmia. Therefor we monitored QTc.

[4] = Plasma acyl ghrelin pharmacokinetics (custom ELISA); format: in vivo, human
Description: In samples dedicated for ghrelin measurements a protease inhibitor cocktail was prepared, consisting of 5.5 μl 10 mM KR-62436 (DPP4 inhibitor) in DMSO and a SIGMAFAST® protease inhibitor tablet (both produced by Sigma-Aldrich Corp., St. Louis, Mo., USA) dissolved in 2100 μl of distilled water (50×stock). Blood samples were drawn using 6 mL EDTA plasma tubes, immediately put on ice and 160 μl of the 50×protease inhibitor cocktail was added. Tubes were vortexed for 10 seconds and centrifuged at 4° C., 10 min, 2500 relative centrifugal force (RCF, or g). The resulting supernatant (plasma) was then pipetted into Eppendorf tubes (450 μl each) and immediately frozen at −70° C. until analyzed.
Plasma concentrations of active (acylated) ghrelin were assayed by a custom ELISA using electrochemiluminescence detection. Plasma samples were thawed and vortexed. They were then analyzed in duplicate on 96-well multispot plates (Meso Scale Diagnostics, Rockville, Md., USA) coated with capture antibodies against acyl-ghrelin according to manufacturer instructions. The Meso Scale Diagnostics Sector Imager 2400 was used to read the plates. The coefficients of variation (CV %) calculated from plasma concentrations after curve fitting were 9.3/3.5 (intra/inter-assay CV %). The lower limit of detection was 3.2 ng/L and upper limit was set at 10,000 ng/L.

[5] = tested on: intracellular cAMP concentration; assay: cAMP measurement in cardiomyocytes (direct immunoassay kit); format: cell-based, mouse; conditions: vs placebo
Description: The intracellular cAMP concentration was measured using the cAMP direct Immunoassay kit (Abcam ab65355). Briefly, frozen cardiomyocytes pellets from groups described above (Placebo, Ghrelin, D-Lys 3 GHS-R1a+Ghrelin) were homogenized on ice using volume of 0.1 M HCl to obtain a protein concentration of 1 mg/ml. Acetylated supernatants of samples were used for the incubation with antibodies in ELISA plates according to the kit manufacturer. Finally, the optic density absorbance at 450 nm was analyzed using a microplate reader (Biotek, Synergy 2). The concentration of cAMP was normalized, dividing the resulting readout (pmol/ml) by the total protein concentration (mg/ml) for each sample. The experiments were conducted by an operator blinded regarding the treatment of the animals.

[6] = After infusion, prior to discharge

Question: With `CCCCCCCC(=O)OC[C@H](NC(=O)[C@H](CO)NC(=O)CN)C(=O)N[C@@H](Cc1ccccc1)C(=O)N[C@@H](CC(C)C)C(=O)N[C@@H](CO)C(=O)N1CCC[C@H]1C(=O)N[C@@H](CCC(=O)O)C(=O)N[C@@H](Cc1cnc[nH]1)C(=O)N[C@@H](CCC(N)=O)C(=O)N[C@@H](CCCNC(=N)N)C(=O)N[C@H](C(=O)N[C@@H](CCC(N)=O)C(=O)N[C@@H](CCC(N)=O)C(=O)N[C@@H](CCCNC(=N)N)C(=O)N[C@@H](CCCCN)C(=O)N[C@@H](CCC(=O)O)C(=O)N[C@@H](CO)C(=O)N[C@@H](CCCCN)C(=O)N[C@@H](CCCCN)C(=O)N1CCC[C@H]1C(=O)N1CCC[C@H]1C(=O)N[C@@H](C)C(=O)N[C@@H](CCCCN)C(=O)N[C@@H](CC(C)C)C(=O)N[C@@H](CCC(N)=O)C(=O)N1CCC[C@H]1C(=O)N[C@@H](CCCNC(=N)N)C(=O)O)C(C)C` [Ghrelin] as the compound, how does the “improvement of CO” value [1] read?
Answer: Its value is “not”.

Question: And the “total troponin I expression” value [2]?
Answer: Its value is “without change”.

Question: And the “troponin I serine 23-24 phosphorylation signal” value [2]?
Answer: The value was “less cTnI phosphorylation (hypophosphorylation)”.

Question: And the “troponin I serine 23-24 phosphorylation signal” value ([2]; listed as ghrelin)?
Answer: Its value is “lower compared to placebo”.

Question: What about the “CO and fractional shortening” value (rat HF models; rat HF models (Nagaya et al., 2001d)) of the same compound?
Answer: The value was “increased CO and fractional shortening”.

Question: And the “cardiac sympathetic activity and LV remodeling” value (rat HF models; rat myocardial infarction models)?
Answer: Its value is “reduced cardiac sympathetic activity and left ventricular (LV) remodeling”.

Question: And the “Maximal QTc prolongation from baseline” value ([3]; 2-5 days after)?
Answer: The value was “+47 ms”.

Question: What about the “Median (interquartile range) changes in QTc from baseline” value (“Median (interquartile range) changes” below) ([3]; 2-5 days after) of the same compound?
Answer: The value was −4 (−34 to +4) ms.

Question: What about the “Maximal QTc prolongation from baseline” value [3, 6] of the same compound?
Answer: The value was “+47 ms”.

Question: And the “Median (interquartile range) changes” value [3, 6]?
Answer: The value was “+18 (−10 to +30) ms”.

Question: What about the “Maximal QTc prolongation from baseline” value ([3]; During infusion, 60 minutes) of the same compound?
Answer: The value was “+36 ms”.

Question: What about the “Median (interquartile range) changes” value ([3]; During infusion, 60 minutes) of the same compound?
Answer: Its value is “+4 (−7 to +21) ms”.

Question: What about the “Maximal QTc prolongation from baseline” value ([3]; During infusion, 120 minutes) of the same compound?
Answer: The value was “+45 ms”.

Question: What about the “Median (interquartile range) changes” value ([3]; During infusion, 120 minutes) of the same compound?
Answer: Its value is “+8 (−4 to +26) ms”.

Question: And the “change in QTc” value ([3]; in vivo)?
Answer: The value was “nominal but not significant increase”.

Question: And the “plasma acyl ghrelin” value ([4]; 2-5 days follow-up)?
Answer: The value was “normalized”.

Question: What about the “plasma acyl ghrelin” value ([4]; 30 minutes after infusion) of the same compound?
Answer: Its value is “near normalized”.

Question: What about the “median plasma acyl ghrelin concentrations” value ([4]; during infusion, treatment group) of the same compound?
Answer: The value was “quickly reached near the maximum of the assay”.

Question: And the level at 0.5 h ([4]; human, plasma, 0.1 ug/kg/min, Infusion 30 min, iv 0.1 μg/kg/min, read-out: plasma acyl ghrelin (median, interquartile range))?
Answer: The level at 0.5 h was 6.11 ng/mL.

Question: What about the level at 1 h ([4]; human, plasma, iv, 0.1 ug/kg/min, Infusion 60 min, read-out: plasma acyl ghrelin (median, interquartile range)) of the same compound?
Answer: The level at 1 h was 6.84 ng/mL.

Question: What about the level at 2 h ([4]; human, plasma, iv, 0.1 ug/kg/min, Infusion 120 min, read-out: plasma acyl ghrelin (median, interquartile range)) of the same compound?
Answer: The level at 2 h was 6.54 ng/mL.

Question: What about the “cAMP concentration in cardiomyocytes” value [5] of the same compound?
Answer: Its value is “reduces”.

Question: What about the “cAMP concentration in cardiomyocytes” value ([5]; listed as ghrelin) of the same compound?
Answer: The value was “lower compared to placebo”.

Source: US20230346889A9, “TREATMENT OF ACUTE HEART FAILURE” (AnaCardio R&D AB, priority 2019, published 2023)
